Experimental data reported in patent US4966891A, “Fluorocytidine derivatives” (priority 1987, dated 1990).

Key:
Meth A fibrosarcoma [1] = assay: Comparative antitumor testing against Meth A fibrosarcoma; assay type: in vivo, murine / mice; settings: p.o. daily × 7, Day 14
Description: (§1) Mice were inoculated subcutaneously with Sarcoma 180, Meth A fibrosarcoma and UV 2237 fibrosarcoma, respectively at Day 0. The mice were then orally administered with the compounds daily for 7 times from Day 1. The efficacy
(§2) was expressed as therapeutic indices (EDmax /ED50) measured at Day 14 after the tumor inoculation, where EDmax is a dose showing maximum inhibition of tumor growth.

UV 2237 fibrosarcoma = assay: Comparative antitumor testing against UV 2237 fibrosarcoma; assay type: in vivo, murine / mice; settings: p.o. daily × 7, Day 14
Description: as §1, §2

Sarcoma 180 [2] = assay: Comparative antitumor testing against Sarcoma 180; assay type: in vivo, murine / mice; settings: p.o. daily × 7, Day 14
Description: as §1, §2

[3] = Fecal observation on Day 8 and toxicity in the comparative Meth A study; settings: for diarrhea: mouse, in vivo
Experimental: (§3) The comparative study on antitumor activity of a representative compound (Example 3) of the present invention with 5'-deoxy-5-fluorouridine was performed according to a manner analogous to that of the antitumor testing against Meth A fibrosarcoma.

Meth A fibrosarcoma [4] = assay: Comparative study on antitumor activity against Meth A fibrosarcoma with 5'-deoxy-5-fluorouridine; assay type: in vivo, mice
Experimental: (§4) Meth A fibrosarcoma cells (2×10^5 cells) were implanted subcutaneously into mice (21-22 g). The testing against Meth A fibrosarcoma and the calculation of the percent inhibition of tumor growth were effected according to a manner analogous to that of the testing against Sarcoma 180.
as §3

Lewis lung carcinoma = settings: mouse, in vivo, po
Experimental: Mice were inoculated subcutaneously with Lewis lung carcinoma (10^6 cells) on day 0.
The compounds were administered daily for 14 times from day 1 by the p.o. route. The effective dose (ED50) at which tumor growth was inhibited by 50%, and toxic doses were determined.

[5] = words, general knowledge; cited from earlier work
in vivo = settings: mouse, po
Sarcoma 180 [6] = assay: Antitumor testing against Sarcoma 180 (oral, s.c. implanted); assay type: in vivo, mice; settings: Mus musculus, 336 h, day 14, read-out: Inhibition of tumor growth; for inhibition in vivo at 1100 µmol/kg: 1.1 mmole/kg/day × 7, p.o.; for inhibition in vivo at 2200 µmol/kg: 2.2 mmole/kg/day × 7, p.o.; for inhibition in vivo at 1500 µmol/kg: 1.5 mmole/kg/day × 7, p.o.
Experimental: (§5) Sarcoma 180 cells (2×10^6 cells) were implanted subcutaneously into mice (20-22 g) on day 0. The compounds of the present invention were administered daily from day 1 through 7 orally. The animals were sacrificed on day 14 and tumors were excised and weighed. The percent inhibition of tumor growth given in Table 1 below was calculated from the formula:
(§6) T=weight of the tumors from the treated group, C=weight of the tumors from the control group.

Meth A fibrosarcoma [7] = assay: Antitumor testing against Meth A fibrosarcoma (oral, s.c. implanted); assay type: in vivo, mice; settings: Mus musculus, read-out: Inhibition of tumor growth; for inhibition in vivo at 1500 µmol/kg: 1.5 mmole/kg/day × 7, p.o.; for inhibition in vivo at 3000 µmol/kg: 3.0 mmole/kg/day × 7, p.o.
Experimental: as §5, §6, §4

Q: For C[C@H]1O[C@@H](n2cc(F)c(N)nc2=O)[C@H](O)[C@@H]1O [5'-deoxy-5-fluorocytidine], which “Therapeutic index (EDmax/ED50), Meth A” value (Meth A fibrosarcoma [1]) is on record?
A: 1.2

Q: And the “Therapeutic index (EDmax/ED50), UV 2237” value (UV 2237 fibrosarcoma)?
A: 1.0

Q: What about the “Therapeutic index (EDmax/ED50), S180” value (Sarcoma 180 [2]) of the same molecule?
A: 2.0

Q: Which results are given for C[C@H]1O[C@@H](n2cc(F)c(=O)[nH]c2=O)[C@H](O)[C@@H]1O [5'-deoxy-5-fluorouridine, reference compound]?
A: Therapeutic index (EDmax/ED50), Meth A (Meth A fibrosarcoma [1]): 1.1; diarrhea [3]: diarrhea, which is the dose limiting factor; Inhibition of tumor growth (Meth A fibrosarcoma [4]; 0.4 mmole/kg/day × 7): 34%; Inhibition of tumor growth (Meth A fibrosarcoma [4]; 0.8 mmole/kg/day × 7): 31%; Inhibition of tumor growth (Meth A fibrosarcoma [4]; 1.5 mmole/kg/day × 7): 66%; Inhibition of tumor growth (Meth A fibrosarcoma [4]; 3.0 mmole/kg/day × 7): toxic; Therapeutic index (EDmax/ED50), UV 2237 (UV 2237 fibrosarcoma): 1.6; Therapeutic index (toxic dose/ED50): 50% Thymus Shrinkage (C) (Lewis lung carcinoma): 5-10; Therapeutic index (toxic dose/ED50): 50% reduction No. of bone marrow cells (D) (Lewis lung carcinoma): 5-10; Therapeutic index (toxic dose/ED50): Max. Dose causing no diarrhea (A) (Lewis lung carcinoma): 5; Therapeutic index (EDmax/ED50), S180 (Sarcoma 180 [2]): 2.4

Q: For O=c1[nH]cc(F)c(=O)[nH]1 [5-fluorouracil], which “major and dose limiting toxicities” value [5] is on record?
A: cause intestinal toxicities and immunosuppressive toxicities

Q: With CCCC(=O)Nc1nc(=O)n([C@@H]2O[C@H](C)[C@@H](O)[C@H]2O)cc1F [Example 1, N^4-butyryl-5'-deoxy-5-fluorocytidine] as the molecule, how does the LD50 (in vivo) read?
A: > 2000 mg/kg

Q: And the “Therapeutic index (EDmax/ED50), Meth A” value (Meth A fibrosarcoma [1])?
A: 2.0

Q: What about the inhibition in vivo at 1100 µmol/kg (Sarcoma 180 [6]) of the same molecule?
A: 56%

Q: What about the inhibition in vivo at 2200 µmol/kg (Sarcoma 180 [6]) of the same molecule?
A: 83%

Q: What about the “Therapeutic index (EDmax/ED50), UV 2237” value (UV 2237 fibrosarcoma) of the same molecule?
A: 4.8

Q: And the inhibition in vivo at 1500 µmol/kg (Meth A fibrosarcoma [7])?
A: 50%

Q: And the inhibition in vivo at 3000 µmol/kg (Meth A fibrosarcoma [7])?
A: 72%

Q: And the “Therapeutic index (toxic dose/ED50): 50% Thymus Shrinkage (C)” value (Lewis lung carcinoma)?
A: 11.3

Q: What about the “Therapeutic index (toxic dose/ED50): 50% reduction No. of bone marrow cells (D)” value (Lewis lung carcinoma) of the same molecule?
A: 10.7

Q: And the “Therapeutic index (toxic dose/ED50): Max. Dose causing no diarrhea (A)” value (Lewis lung carcinoma)?
A: > 13

Q: What about the “Therapeutic index (EDmax/ED50), S180” value (Sarcoma 180 [2]) of the same molecule?
A: 2.3

Q: What does the source list for COc1cc(C(=O)Nc2nc(=O)n([C@@H]3O[C@H](C)[C@@H](O)[C@H]3O)cc2F)cc(OC)c1OC [Example 3, 5'-deoxy-5-fluoro-N^4-(3,4,5-trimethoxybenzoyl)cytidine]?
A: diarrhea [3]: did not cause diarrhea; toxicity compared with 5'-deoxy-5-fluorouridine ([3]; words): less toxic than 5'-deoxy-5-fluorouridine; Inhibition of tumor growth (Meth A fibrosarcoma [4]; 0.4 mmole/kg/day × 7): -27%; Inhibition of tumor growth (Meth A fibrosarcoma [4]; 0.8 mmole/kg/day × 7): 20%; Inhibition of tumor growth (Meth A fibrosarcoma [4]; 1.5 mmole/kg/day × 7): 86%; Inhibition of tumor growth (Meth A fibrosarcoma [4]; 3.0 mmole/kg/day × 7): 79%; antitumor activity compared with 5'-deoxy-5-fluorouridine (Meth A fibrosarcoma [4]; words): more potent in the antitumor activity; inhibition in vivo at 1500 µmol/kg (Meth A fibrosarcoma [7]): 86%; inhibition in vivo at 3000 µmol/kg (Meth A fibrosarcoma [7]): 79%

Q: Which LD50 (in vivo) does the source give for CCCCCCCC(=O)Nc1nc(=O)n([C@@H]2O[C@H](C)[C@@H](O)[C@H]2O)cc1F [Example 5, 5'-deoxy-5-fluoro-N^4-octanoylcytidine] here?
A: > 2000 mg/kg

Q: What about the inhibition in vivo at 1100 µmol/kg (Sarcoma 180 [6]) of the same molecule?
A: 62%

Q: And the inhibition in vivo at 2200 µmol/kg (Sarcoma 180 [6])?
A: 82%

Q: Which results are given for CC(C)C(=O)Nc1nc(=O)n([C@@H]2O[C@H](C)[C@@H](O)[C@H]2O)cc1F [Example 9, 5'-deoxy-5-fluoro-N^4-isobutyrylcytidine]?
A: LD50 (in vivo): > 2000 mg/kg; inhibition in vivo at 1400 µmol/kg (Sarcoma 180 [6]; 1.4 mmole/kg/day × 7, p.o.): 76%; inhibition in vivo at 2700 µmol/kg (Sarcoma 180 [6]; 2.7 mmole/kg/day × 7, p.o.): 96%

Q: For COc1ccc(C(=O)Nc2nc(=O)n([C@@H]3O[C@H](C)[C@@H](O)[C@H]3O)cc2F)cc1 [Example 24], which LD50 (in vivo) is on record?
A: > 2000 mg/kg

Q: And the inhibition in vivo at 1500 µmol/kg (Sarcoma 180 [6])?
A: 63%

Q: And the inhibition in vivo at 3000 µmol/kg (Sarcoma 180 [6]; 3.0 mmole/kg/day × 7, p.o.)?
A: 94%

Q: What does the source list for C[C@H]1O[C@@H](n2cc(F)c(NC(=O)c3cccnc3)nc2=O)[C@H](O)[C@@H]1O [Example 34]?
A: LD50 (in vivo): > 2000 mg/kg; inhibition in vivo at 1300 µmol/kg (Meth A fibrosarcoma [7]; 1.3 mmole/kg/day × 7, p.o.): 75%; inhibition in vivo at 2600 µmol/kg (Meth A fibrosarcoma [7]; 2.6 mmole/kg/day × 7, p.o.): 92%

Q: Which inhibition in vivo at 500 µmol/kg (Sarcoma 180 [6]; 0.5 mmole/kg/day × 7, p.o.) does the source give for C[C@H]1O[C@@H](n2cc(F)c(NC(=O)OCc3ccccc3)nc2=O)[C@H](O)[C@@H]1O [Example 42, N^4-(benzyloxycarbonyl)-5'-deoxy-5-fluorocytidine] here?
A: 0%

Q: What about the inhibition in vivo at 1500 µmol/kg (Sarcoma 180 [6]) of the same molecule?
A: 36%

Q: With CCCCC(=O)Nc1nc(=O)n([C@@H]2O[C@H](C)[C@@H](O)[C@H]2O)cc1F [Example 46, 5'-deoxy-5-fluoro-N^4-valerylcytidine] as the molecule, how does the LD50 (in vivo) read?
A: > 2000 mg/kg

Q: And the inhibition in vivo at 1500 µmol/kg (Meth A fibrosarcoma [7])?
A: 51%

Q: And the inhibition in vivo at 3000 µmol/kg (Meth A fibrosarcoma [7])?
A: 66%

Q: Which LD50 (in vivo) does the source give for CC(C)CC(=O)Nc1nc(=O)n([C@@H]2O[C@H](C)[C@@H](O)[C@H]2O)cc1F [Example 47, 5'-deoxy-5-fluoro-N^4-isovalerylcytidine] here?
A: > 2000 mg/kg

Q: And the inhibition in vivo at 1500 µmol/kg (Meth A fibrosarcoma [7])?
A: 29%

Q: What about the inhibition in vivo at 3000 µmol/kg (Meth A fibrosarcoma [7]) of the same molecule?
A: 59%
